Results on eleven molecules are retold here after ChEMBL document CHEMBL1127437, “Novel benzisoxazole derivatives as potent and selective inhibitors of acetylcholinesterase” (J Med Chem, 1994).

For one assay, the target named is Butyrylcholinesterase (Equus caballus, UniProt Q9N1N9).
Assay [1] relates to Mus musculus. The experiment in a line: Tested for effective dose for […] by peroral administration in vivo in mouse. It is filed as functional. To be noted: po.
The target in another assay is Acetylcholinesterase (Homo sapiens, UniProt P22303).
The species named for assay [2] is Mus musculus. The experiment in a line: animal or person.
Description: Tested for effective dose for elevation of Acetylcholinesterase (AChE) in mouse forebrain
The test system of assay [3] is Mus musculus. Kind of assay: In vivo activity was determined by measuring […] in mouse forebrain. The format is functional.

Acetylcholinesterase, sequence (P22303 whole entry): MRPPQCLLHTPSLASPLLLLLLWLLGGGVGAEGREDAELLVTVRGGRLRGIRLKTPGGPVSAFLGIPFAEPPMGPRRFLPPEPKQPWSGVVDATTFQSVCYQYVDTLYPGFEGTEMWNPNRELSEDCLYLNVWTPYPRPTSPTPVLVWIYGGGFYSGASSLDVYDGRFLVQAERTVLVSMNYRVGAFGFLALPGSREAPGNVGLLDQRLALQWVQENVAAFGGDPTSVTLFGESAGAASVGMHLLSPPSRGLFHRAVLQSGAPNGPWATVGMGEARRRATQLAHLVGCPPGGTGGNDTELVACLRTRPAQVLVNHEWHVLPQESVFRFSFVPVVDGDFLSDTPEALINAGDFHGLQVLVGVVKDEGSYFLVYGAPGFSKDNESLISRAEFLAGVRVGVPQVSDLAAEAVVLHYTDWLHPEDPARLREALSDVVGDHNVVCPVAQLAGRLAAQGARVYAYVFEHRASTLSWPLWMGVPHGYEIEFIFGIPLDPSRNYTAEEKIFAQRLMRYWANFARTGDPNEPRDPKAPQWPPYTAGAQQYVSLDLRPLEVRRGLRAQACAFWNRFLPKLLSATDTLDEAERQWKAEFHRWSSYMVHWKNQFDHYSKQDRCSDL
Butyrylcholinesterase, sequence (Q9N1N9 whole entry): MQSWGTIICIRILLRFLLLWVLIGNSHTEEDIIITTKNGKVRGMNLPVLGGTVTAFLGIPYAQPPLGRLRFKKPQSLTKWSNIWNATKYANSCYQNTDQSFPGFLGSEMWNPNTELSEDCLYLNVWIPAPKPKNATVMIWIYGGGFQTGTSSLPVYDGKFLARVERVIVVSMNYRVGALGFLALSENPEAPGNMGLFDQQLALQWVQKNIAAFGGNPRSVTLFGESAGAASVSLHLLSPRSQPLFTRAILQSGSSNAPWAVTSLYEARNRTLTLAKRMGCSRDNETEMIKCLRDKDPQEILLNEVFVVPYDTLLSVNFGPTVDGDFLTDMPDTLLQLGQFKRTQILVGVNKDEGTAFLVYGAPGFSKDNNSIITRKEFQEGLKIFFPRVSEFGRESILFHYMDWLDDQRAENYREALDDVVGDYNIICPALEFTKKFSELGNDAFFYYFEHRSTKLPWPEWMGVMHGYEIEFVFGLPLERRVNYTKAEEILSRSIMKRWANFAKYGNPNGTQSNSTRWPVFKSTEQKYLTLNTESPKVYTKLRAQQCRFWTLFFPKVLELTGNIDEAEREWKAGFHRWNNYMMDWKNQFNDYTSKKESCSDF
Description for Acetylcholinesterase: Evaluated for the in vitro inhibition of the Acetylcholinesterase (AChE) from human erythrocytes
Description for Butyrylcholinesterase: Compound was evaluated for the in vitro inhibition of the Butyrylcholinesterase from horse serum

In the case of `c1ccc(CN2CCC(CCc3noc4cc(N5CCOCC5)ccc34)CC2)cc1`, the IC50 against Butyrylcholinesterase is 4.7 µM. `CC(=O)Nc1ccc2c(CCC3CCN(Cc4ccccc4)CC3)noc2c1` yielded a median effective dose (ED50) with Mus musculus [1] of 2.4 mg/kg. The IC50 worked out at 2.8 nM against Acetylcholinesterase and 9 µM on Butyrylcholinesterase. In turn, `c1ccc(CN2CCC(CCc3ncnc4ccccc34)CC2)cc1` came in with an IC50 on Acetylcholinesterase of 340 nM. With `COc1cc2c(cc1OC)C(=O)C(CC1CCN(Cc3ccccc3)CC1)C2` (stereo not drawn) [DONEPEZIL], in the assay filed under Mus musculus [2], the 50% effect level (ED50) was put at a dose of 14 mg/kg. Molecule `O=S(=O)(Nc1ccc2c(CCC3CCN(Cc4ccccc4)CC3)noc2c1)c1ccccc1` came in with an IC50 on Acetylcholinesterase of 14 nM. As for `O=C(Nc1ccc2c(CCC3CCN(Cc4ccccc4)CC3)noc2c1)c1ccccc1`, the ED50 in the assay on Mus musculus [3] was > 100 mg/kg.

Regarding `N#Cc1ccc2c(CCC3CCN(Cc4ccccc4)CC3)noc2c1`, at Acetylcholinesterase, it took 101 nM to reach half-maximal inhibition (IC50). Still for that read-out and setting: the value for `Brc1ccc2c(CCC3CCN(Cc4ccccc4)CC3)noc2c1` was 50 nM; that for `Cc1ccc2onc(CCC3CCN(Cc4ccccc4)CC3)c2c1` was 7.8 nM. `CNC(=O)Oc1ccc2c(c1)[C@]1(C)CCN(C)[C@@H]1N2C` [PHYSOSTIGMINE] displayed an IC50 against Butyrylcholinesterase of 0.073 µM. Consider `Cc1cc2onc(CCC3CCN(Cc4ccccc4)CC3)c2cc1C`, for which inhibition against Acetylcholinesterase was half-maximal at 5.8 nM (IC50).

In general, IC50 refers to the midpoint of a concentration-inhibition curve. Low values mean greater potency, high ones weaker potency. The ED50 is the dose that gives a 50% effect, or the effect in half of the subjects. The low end stands for an effect at a small dose, the high end for a need for a large dose.
